How the values were obtained:
Assay in all cases: combination Emax (second highest fraction inhibited in the dose matrix, 72 h); higher = more inhibition; extreme values may be limits of the assay
[1] = tested on: TYK-nu (Ovarian Carcinoma)
In short: (§1)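 Bliss excess equals the observed combination effect minus the expected value EA + EB − EA·EB, where EA and EB are the effects of each agent alone. Combination Emax is the second-highest inhibition within the matrix. Inhibition was scaled from CellTiter-Glo 2.0 luminescence, with 0 set by vehicle wells and 1 by blank wells, after 72 hours of two-drug dosing of cells plated in 1536-well plates.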

MCF7 (Breast Carcinoma) = tested on: MCF7 (Breast Carcinoma)
In short: as §1

[2] = tested on: DOK (Oral Cavity Carcinoma)
In short: as §1

[3] = tested on: YT (Other Blood Carcinomas)
In short: as §1

[4] = tested on: SK-UT-1 (Other Solid Carcinomas)
In short: as §1

[5] = tested on: 647-V (Bladder Carcinoma)
In short: as §1

[6] = tested on: SW48 (Colorectal Carcinoma)
In short: as §1

[7] = tested on: CAL-39 (Other Solid Carcinomas)
In short: as §1

[8] = tested on: SNU-61 (Colorectal Carcinoma)
In short: as §1

EW-22 (Ewing's Sarcoma) = tested on: EW-22 (Ewing's Sarcoma)
In short: as §1

H4 (Low Grade Glioma) = tested on: H4 (Low Grade Glioma)
In short: as §1

[9] = tested on: EKVX (Non-Small Cell Lung Carcinoma)
In short: as §1

CS1 (Chondrosarcoma) = tested on: CS1 (Chondrosarcoma)
In short: as §1

[10] = tested on: SW948 (Colorectal Carcinoma)
In short: as §1

[11] = tested on: SNG-M (Endometrial Carcinoma)
In short: as §1

[12] = tested on: WSU-DLCL2 (B-Cell Non-Hodgkin's Lymphoma)
In short: as §1

[13] = tested on: ETK-1 (Biliary Tract Carcinoma)
In short: as §1

[14] = tested on: SKN-3 (Head and Neck Carcinoma)
In short: as §1

Saos-2 (Osteosarcoma) = tested on: Saos-2 (Osteosarcoma)
In short: as §1

D-392MG (Glioblastoma) = tested on: D-392MG (Glioblastoma)
In short: as §1

| Compound | combination Emax [1] | combination Emax (MCF7 (Breast Carcinoma)) | combination Emax [2] | combination Emax [3] | combination Emax [4] | combination Emax [5] | combination Emax [6] | combination Emax [7] | combination Emax [8] | combination Emax (EW-22 (Ewing's Sarcoma)) | combination Emax (H4 (Low Grade Glioma)) | combination Emax [9] | combination Emax (CS1 (Chondrosarcoma)) | combination Emax [10] | combination Emax [11] | combination Emax [12] | combination Emax [13] | combination Emax [14] | combination Emax (Saos-2 (Osteosarcoma)) | combination Emax (D-392MG (Glioblastoma)) |
| --- | --- | --- | --- | --- | --- | --- | --- | --- | --- | --- | --- | --- | --- | --- | --- | --- | --- | --- | --- | --- |
| CN(CCO)CC[C@H](CSc1ccccc1)Nc1ccc(S(=O)(=O)NC(=O)c2ccc(N3CCC([C@@H](O)c4ccccc4-c4ccc(Cl)cc4)CC3)cc2)cc1S(=O)(=O)C(F)(F)F [AZD4320] + CCN(CCO)CCCOc1ccc2c(Nc3cc(CC(=O)Nc4cccc(F)c4)[nH]n3)ncnc2c1 [AZD2811] (first compound max 1 µM, 7x7, partner max 1 µM) | 0.27 | 0.248 | 0.747 | 0.196 | 0.414 | 0.708 | 1 | 0.397 | 0.126 | 1 | 0.543 | 0.155 | 0.683 | 0.545 | 0.775 | 0.907 | 0.26 | 0.0584 | 0.77 | 0.729 |
| CC1(C)CCC(CN2CCN(c3ccc(C(=O)NS(=O)(=O)c4ccc(NCC5CCOCC5)c([N+](=O)[O-])c4)c(Oc4cnc5[nH]ccc5c4)c3)CC2)=C(c2ccc(Cl)cc2)C1 [Venetoclax] + C[C@@H]1COCCN1C2=NC(=NC(=C2)C3(CC3)[S@](=N)(=O)C)C4=C5C=CNC5=NC=C4 [AZD6738] (first compound max 1 µM, 7x7, partner max 10 µM) | 0.722 | 0.705 | 0.414 | 0.852 | 0.895 | 0.698 | 0.752 | 0.397 | 0.43 | 0.929 | 0.768 | 0.214 | 0.701 | 0.595 | 0.894 | 0.969 | 0.723 | 0.576 | 0.584 | 0.339 |
| COc1cccc(OCCCN)c1-c1cc(Nc2cnc(C#N)cn2)n[nH]1 [Prexasertib] + C[C@@H]1COCCN1C2=NC(=NC(=C2)C3(CC3)[S@](=N)(=O)C)C4=C5C=CNC5=NC=C4 [AZD6738] (first compound max 1 µM, 7x7, partner max 10 µM) | 0.766 | 0.703 | 0.43 | 0.918 | 0.926 | 0.703 | 0.81 | 0.524 | 0.422 | 0.888 | 0.91 | 0.24 | 0.714 | 0.821 | 1 | 1 | 0.588 | 0.637 | 0.704 | 0.524 |
| CC(=O)Nc1cccc(-n2c(=O)n(C3CC3)c(=O)c3c(Nc4ccc(I)cc4F)n(C)c(=O)c(C)c32)c1 [Trametinib] + Cc1nc(-c2cn3c(n2)-c2ccc(-c4cnn(C(C)(C)C(N)=O)c4)cc2OCC3)n(C(C)C)n1 [Taselisib] (first compound max 1 µM, 7x7, partner max 10 µM) | 0.737 | 0.732 | 0.998 | 0.711 | 0.597 | 0.456 | 0.95 | 1 | 0.672 | 0.722 | 0.795 | 0.82 | 0.878 | 0.994 | 0.871 | 0.936 | 0.86 | 0.655 | 0.681 | 0.709 |
| CC1(C)CCC(CN2CCN(c3ccc(C(=O)NS(=O)(=O)c4ccc(NCC5CCOCC5)c([N+](=O)[O-])c4)c(Oc4cnc5[nH]ccc5c4)c3)CC2)=C(c2ccc(Cl)cc2)C1 [Venetoclax] + C1CN(CCC1(C(=O)N[C@@H](CCO)C2=CC=C(C=C2)Cl)N)C3=NC=NC4=C3C=CN4 [Capivasertib] (first compound max 1 µM, 7x7, partner max 3 µM) | 0.298 | 0.42 | 0.331 | 0.47 | 0.34 | 0.218 | 0.267 | 0.279 | 0.154 | 0.905 | 0.473 | 0.302 | 0.324 | 0.646 | 0.416 | 1 | 0.331 | 0.0823 | 0.412 | 0.239 |
| CC1(C)CCC(CN2CCN(c3ccc(C(=O)NS(=O)(=O)c4ccc(NCC5CCOCC5)c([N+](=O)[O-])c4)c(Oc4cnc5[nH]ccc5c4)c3)CC2)=C(c2ccc(Cl)cc2)C1 [Venetoclax] + C=CCn1c(=O)c2cnc(Nc3ccc(N4CCN(C)CC4)cc3)nc2n1-c1cccc(C(C)(C)O)n1 [AZD1775] (first compound max 1 µM, partner max 1 µM) | 0.681 | 0.452 | 0.333 | 0.928 | 0.921 | 0.612 | 0.809 | 0.36 | 0.373 | 0.924 | 0.85 | 0.172 | 0.682 | 0.773 | 0.729 | 0.995 | 0.497 | 0.402 | 0.818 | 0.5 |
